Measured values as given in patent US20060052312A1, “Paclitaxel hybrid derivatives” (priority 2003, published 2006).

How the values were obtained:
[1] = system: MDR over non-MDR human breast cancer cell lines; experiment: MDR liability: growth inhibition in MDR over non-MDR human breast cancer cell lines; type: cell-based
[2] = Stability of PAC esters in aqueous media at pH 7.4 and 37° C.; type: physicochemical; conditions: read-out: T½ (apparent half-life in aqueous media) (converted)
[3] = system: MCF7 human breast cancer cell; experiment: Inhibition of MCF7 human breast cancer cell growth (non-MDR cell line); type: cell-based; conditions: read-out: Potency (dose that inhibits MCF7 human breast cancer cell growth by 50%)

half-life [2]: 11.6 days
IC50 [3]: 6.9 nM
SMILES: CC(=O)O[C@H]1C(=O)[C@@]2(C)[C@H]([C@H](OC(=O)c3ccccc3)[C@]3(O)C[C@H](OC(=O)[C@H](O)[C@@H](NC(=O)c4ccccc4)c4ccccc4)C(C)=C1C3(C)C)[C@]1(OC(C)=O)CO[C@@H]1C[C@@H]2O [PAC, Paclitaxel]
MDR liability [1]: about 1000 fold
MDR Liability (ratio of doses inhibiting growth by 50% in MDR over non-MDR human breast cancer cell lines) ([1]; MDR over non-MDR human breast cancer cell lines): 1041
